Each structure is given as a SMILES string. A value given as a limit tells only on which side of the number the result lay.

The test system of one series is Aedes aegypti. Briefly: Aedes Aegypti (Yellow Fever Mosquito). The conditions noted are these: 200 ppm in ethanol, dry deposit in 12 well plates, adult females, after 48 h and/or 24 h. In kind it is in vivo. On the procedure:
Test solutions, at an application rate of 200 ppm in ethanol, were applied to 12 well tissue culture plates. Once the deposits were dry, five, two to five day old adult female Aedes aegypti were added to each well, and sustained with a 10% sucrose solution in a cotton wool plug. Assessment of knockdown was made one hour after introduction, and mortality was assessed at 24 and 48 hours after introduction.

The next series relates to Plutella xylostella. Briefly: Plutella xylostella (Diamond Back Moth). Format: in vivo. The conditions noted are these: 120 h, application rate of 200 ppm, artificial diet, L2 larvae, 5 days after infestation, read-out: effect in at least one of the two categories (mortality or growth inhibition). On the procedure: 24-well microtiter plates with artificial diet were treated with aqueous test solutions prepared from 10,000 ppm DMSO stock solutions by pipetting. After drying, the plates were infested with L2 larvae (10 to 15 per well). The samples were assessed for mortality and growth inhibition in comparison to untreated samples 5 days after infestation.

Series [1] has as its system Frankliniella occidentalis. As to the kind of experiment: Frankliniella occidentalis (Western Flower Thrips): Feeding/Contact Activity. Format: in vivo. The conditions noted are these: foliar, 168 h, application rate of 200 ppm, sprayed sunflower leaf discs, population of mixed ages, 7 days after infestation. On the procedure:
Sunflower leaf discs were placed on agar in 24-well microtiter plates and sprayed with aqueous test solutions prepared from 10,000 DMSO stock solutions. After drying the leaf discs were infested with a Frankliniella population of mixed ages. The samples were assessed for mortality 7 days after infestation.

The test system of series [2] is Myzus persicae. Briefly: Myzus persicae (Green Peach Aphid): Feeding/Contact Activity. In kind it is in vivo. The conditions noted are these: foliar, 144 h, application rate of 200 ppm, sprayed sunflower leaf discs, aphid population of mixed ages, 6 days after infestation. Here is the method: Sunflower leaf discs were placed onto agar in a 24-well microtiter plate and sprayed with aqueous test solutions prepared from 10,000 ppm DMSO stock solutions. After drying, the leaf discs were infested with an aphid population of mixed ages. The samples were assessed for mortality 6 days after infestation.

The next series deals with Tetranychus urticae. As to the kind of experiment: Tetranychus urticae (Two-Spotted Spider Mite): Feeding/Contact Activity. The conditions noted are these: foliar, 192 h, application rate of 200 ppm, sprayed bean leaf discs, mixed population (mobile stages), 8 days after infestation. In kind it is in vivo. Here is the method:
Bean leaf discs on agar in 24-well microtiter plates were sprayed with aqueous test solutions prepared from 10,000 ppm DMSO stock solutions. After drying the leaf discs were infested with a mite population of mixed ages. The samples were assessed for mortality on mixed population (mobile stages) 8 days after infestation.

The subject of series [3] is Spodoptera littoralis. As to the kind of experiment: Spodoptera littoralis (Egyptian Cotton Leaf Worm), sprayed cotton leaf discs. In kind it is in vivo. The conditions noted are these: foliar, 72 h, application rate of 200 ppm, L1 larvae, 3 days after infestation. Put shortly: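 Cotton leaf discs on agar sprayed with aqueous dilutions of 10,000 ppm DMSO stocks, dried, then infested with five L1 larvae. Mortality, anti-feeding and growth inhibition scored against untreated discs 3 days after infestation. Control recorded when any one category exceeds the untreated sample.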

The next series deals with Diabrotica balteata. As to the kind of experiment: Diabrotica balteata (Corn Root Worm). Format: in vivo. The conditions noted are these: 96 h, application rate of 200 ppm, sprayed maize sprouts, L2 larvae, 4 days after infestation, read-out: effect in at least one of the two categories (mortality or growth inhibition). Here is the method:
Maize sprouts placed onto an agar layer in 24-well microtiter plates were treated with aqueous test solutions prepared from 10,000 ppm DMSO stock solutions by spraying. After drying, the plates were infested with L2 larvae (6 to 10 per well). The samples were assessed for mortality and growth inhibition in comparison to untreated samples 4 days after infestation.

The next series concerns Euschistus heros. As to the kind of experiment: Euschistus heros (Neotropical Brown Stink Bug). Format: in vivo. The conditions noted are these: 120 h, application rate of 200 ppm, sprayed soybean leaves, N2 nymphs, 5 days after infestation, read-out: effect in at least one of the two categories (mortality or growth inhibition). Here is the method: Soybean leaves on agar in 24-well microtiter plates were sprayed with aqueous test solutions prepared from 10,000 ppm DMSO stock solutions. After drying the leaves were infested with N2 nymphs. The samples were assessed for mortality and growth inhibition in comparison to untreated samples 5 days after infestation.

Series [4] deals with Spodoptera littoralis. Briefly: Spodoptera littoralis (Egyptian Cotton Leaf Worm), uptake by lettuce roots from agar. Format: in vivo. The conditions noted are these: 144 h, test rate of 12.5 ppm, mixed with agar, absorbed by lettuce roots, Spodoptera eggs, 6 days after infestation, read-out: effect in at least one of the three categories (mortality, anti-feeding, or growth inhibition). Put shortly:
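Compound from 10,000 ppm DMSO stock mixed into agar; lettuce seeds grew 7 days, taking compound up via roots into the lid plate. Cut leaves infested with Spodoptera eggs; mortality, anti-feedant effect and growth inhibition scored against untreated samples 6 days after infestation.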

The next series deals with Thrips tabaci. As to the kind of experiment: Thrips tabaci (Onion Thrips) Feeding/Contact Activity. In kind it is in vivo. The conditions noted are these: foliar, 144 h, application rate of 200 ppm, sprayed sunflower leaf discs, thrips population of mixed ages, 6 days after infestation. Here is the method: Sunflower leaf discs were placed on agar in 24-well microtiter plates and sprayed with aqueous test solutions prepared from 10,000 ppm DMSO stock solutions. After drying the leaf discs were infested with a thrips population of mixed ages. The samples were assessed for mortality 6 days after infestation.

A further series relates to Bemisia tabaci. As to the kind of experiment: Bemisia tabaci (Cotton White Fly): Feeding/Contact Activity. In kind it is in vivo. The conditions noted are these: foliar, 144 h, application rate of 200 ppm, sprayed cotton leaf discs, adult white flies, 6 days after incubation. On the procedure:
Cotton leaf discs were placed on agar in 24-well microtiter plates and sprayed with aqueous test solutions prepared from 10,000 ppm DMSO stock solutions. After drying the leaf discs were infested with adult white flies. The samples were checked for mortality 6 days after incubation.

Series [5] deals with Myzus persicae. As to the kind of experiment: Myzus persicae (Green Peach Aphid). Intrinsic Activity. In kind it is in vivo. The conditions noted are these: 120 h, test rate of 12 ppm, mixed with sucrose solution, Parafilm, 5 days after infestation. On the procedure:
Test compounds prepared from 10,000 ppm DMSO stock solutions were applied by pipette into 24-well microtiter plates and mixed with sucrose solution. The plates were closed with a stretched Parafilm. A plastic stencil with 24 holes was placed onto the plate and infested pea seedlings were placed directly on the Parafilm. The infested plate was closed with a gel blotting paper and another plastic stencil and then turned upside down. The samples were assessed for mortality 5 days after infestation.

The pest or weed control is how far the test organism was held down. For orientation: mortality means the percentage killed. Low readings indicate a weak lethal effect, high ones a strong lethal effect. Take `CCn1c(C(F)(F)F)cc2nc(-c3ncc(NC4CC4)cc3S(=O)(=O)CC)n(C)c2c1=O` [Compound A1]: the pest or weed control at 200 ppm with Aedes aegypti was no less than 80%. Moreover, the percent effect (mortality or growth inhibition) at 200 ppm in the series with Plutella xylostella and in the series with Euschistus heros was no less than 80% throughout. The mortality at 200 ppm (in series [1]; in the series with Myzus persicae [2]; in the series with Tetranychus urticae) was no less than 80% in each case. The molecule also returned a percent control (mortality, anti-feeding effect or growth inhibition) at 200 ppm in the series with Spodoptera littoralis [3] of no less than 80%. In the series on Diabrotica balteata, the effect mortality or growth inhibition at 200 ppm was no less than 80%.

One may read the melting point as the temperature, or range, at which the solid turns liquid. Molecule `CCn1c(C(F)(F)F)cc2nc(-c3ncc(N(C(=O)C4CC4)S(C)(=O)=O)cc3S(=O)(=O)CC)n(C)c2c1=O` [Compound A21, N-[6-[5-ethyl-3-methyl-4-oxo-6-(trifluoromethyl)imidazo[4,5-c]pyridin-2-yl]-5-ethylsulfonyl-3-pyridyl]-N-methylsulfonyl-cyclopropanecarboxamide] returned a melting point of 232 to 234 °C.

In the case of `CCS(=O)(=O)c1cc(Br)c(N)nc1-c1nc2cc(C(F)(F)F)n(C3CC3)c(=O)c2n1C` [Compound A44, 2-(6-amino-5-bromo-3-ethylsulfonyl-2-pyridyl)-5-cyclopropyl-3-methyl-6-(trifluoromethyl)imidazo[4,5-c]pyridin-4-one], the percent effect (mortality or growth inhibition) at 200 ppm in the series with Plutella xylostella and with Euschistus heros was no less than 80% each time. For the same molecule, in the series with Spodoptera littoralis [4], the percent effect (mortality, anti-feeding or growth inhibition) at 12.5 ppm was no less than 80%. The mortality at 200 ppm in the series with Myzus persicae [2], in the series with Thrips tabaci and in the series with Bemisia tabaci was no less than 80% throughout. In the series on Spodoptera littoralis [3], this molecule gave a percent control (mortality, anti-feeding effect or growth inhibition) at 200 ppm of no less than 80%. The effect mortality or growth inhibition at 200 ppm in the series on Diabrotica balteata was no less than 80%.

Regarding `CCS(=O)(=O)c1cc(Br)c(NC)nc1-c1nc2cc(C(F)(F)F)n(C3CC3)c(=O)c2n1C` [Compound A52, 2-[5-bromo-3-ethylsulfonyl-6-(methylamino)-2-pyridyl]-5-cyclopropyl-3-methyl-6-(trifluoromethyl)imidazo[4,5-c]pyridin-4-one], the percent effect (mortality or growth inhibition) at 200 ppm with Plutella xylostella and with Euschistus heros was no less than 80% in each case. Also, the percent effect (mortality, anti-feeding or growth inhibition) at 12.5 ppm in the series on Spodoptera littoralis [4] is no less than 80%. For the same molecule, the mortality at 200 ppm with Myzus persicae [2], with Thrips tabaci and in the series with Bemisia tabaci was no less than 80% each time. The molecule further showed a percent control (mortality, anti-feeding effect or growth inhibition) at 200 ppm with Spodoptera littoralis [3] of no less than 80%. In addition, the effect mortality or growth inhibition at 200 ppm in the series with Diabrotica balteata is no less than 80%.

Turning to `CCSc1cc(NC(=O)C2CC2)cnc1-c1nc2cc(C(F)(F)F)n(CC)c(=O)c2n1C` [Compound A59, N-[6-[5-ethyl-3-methyl-4-oxo-6-(trifluoromethyl)imidazo[4,5-c]pyridin-2-yl]-5-ethylsulfanyl-3-pyridyl]cyclopropanecarboxamide], the percent effect (mortality or growth inhibition) at 200 ppm with Plutella xylostella is no less than 80%. The molecule further displayed a mortality at 200 ppm in the series with Myzus persicae [2] of no less than 80%. This molecule also had a percent control (mortality, anti-feeding effect or growth inhibition) at 200 ppm with Spodoptera littoralis [3] of no less than 80%. Besides, the effect mortality or growth inhibition at 200 ppm in the series on Diabrotica balteata is no less than 80%. In the series with Myzus persicae [5], this molecule showed a mortality at 12 ppm of no less than 80%.

The values above are taken from patent publication US10730872B2, “Pesticidally active heterocyclic derivatives with sulphur containing sustitutents” (SYNGENTA PARTICIPATIONS AG, priority 2015, dated 2020).
